For assay [1], the system named is Mycobacterium tuberculosis. Put plainly: Minimum inhibition concentration required against isoniazid resistant Mycobacterium tuberculosis was determined in monolayers of mouse bone marrow macrophages. The class given is functional.
The subject of assay [2] is Mycobacterium tuberculosis. Kind of assay: Minimum bactericidal required against isoniazid resistant Mycobacterium tuberculosis was determined in monolayers of mouse bone marrow macrophages. The class given is functional.

Molecules are shown by their SMILES.

In the case of `NNC(=O)c1ccncc1` [ISONIAZID], in assay [1], the MIC is over 0.2 µg/mL. In assay [2], this compound registered an MBC of over 1.6 µg/mL.

(Values after ChEMBL document CHEMBL1138642, “In vitro advanced antimycobacterial screening of cobalt(II) and copper(II) complexes of fluorinated isonicotinoylhydrazones” (2004).)
